Measured values: PubChem BioAssay AID1919008 (Molecular Pharmacology Branch, DTP, NCI, 2023)

System: DMS-114 complex spheroids with HUVEC/MSC, growth % test/control
Assay: Anticancer human tumor DMS-114 cell line growth inhibition [AhR];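 note: spheroids exposed to agents for 7 days before readout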;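 for viability, T/C: 100% = DMSO vehicle control wells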
Settings: for IC50: curve of first compound; for viability, T/C: stronger effect = lower value
Method in brief: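 Spheroids combined tumor cells with HUVEC endothelial cells and human MSCs as stroma. AhR antagonists were paired with standard or investigational drugs, each dosed in half-log steps down from near clinical Cmax, or from 10 microM where Cmax was unknown.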

[1] = second compound 0.1 µM, first compound 0.00949 µM
[2] = second compound 0.1 µM, first compound 0.03 µM
[3] = second compound 0.1 µM, first compound 0.0949 µM
[4] = second compound 0.1 µM, first compound 0.3 µM
[5] = second compound 0.316 µM, first compound 0.00949 µM
[6] = second compound 0.316 µM, first compound 0.03 µM
[7] = second compound 0.316 µM, first compound 0.0949 µM
[8] = second compound 0.316 µM, first compound 0.3 µM
[9] = second compound 1 µM, first compound 0.00949 µM
[10] = second compound 1 µM, first compound 0.03 µM
[11] = second compound 1 µM, first compound 0.0949 µM
[12] = second compound 1 µM, first compound 0.3 µM
[13] = second compound 3.16 µM, first compound 0.00949 µM
[14] = second compound 3.16 µM, first compound 0.03 µM
[15] = second compound 3.16 µM, first compound 0.0949 µM
[16] = second compound 3.16 µM, first compound 0.3 µM
[17] = second compound 10 µM, first compound 0.00949 µM
[18] = second compound 10 µM, first compound 0.03 µM
[19] = second compound 10 µM, first compound 0.0949 µM
[20] = second compound 10 µM, first compound 0.3 µM

CC1COCCN1c1cc(C2(S(C)(=N)=O)CC2)nc(-c2ccnc3[nH]ccc23)n1 (stereo not given) + Cc1cncc(-c2nc(NCCc3c[nH]c4ccccc34)c3ncn(C(C)C)c3n2)c1
IC50 (second compound 0.1 µM): 6130 nM | IC50 (second compound 0.316 µM): 5180 nM | IC50 (second compound 1 µM): 5900 nM | IC50 (second compound 3.16 µM): 4840 nM | IC50 (second compound 10 µM): 933 nM | viability, T/C (second compound 0.1 µM, first compound 0.0316 µM): 98.5% | viability, T/C (second compound 0.1 µM, first compound 0.1 µM): 96% | viability, T/C (second compound 0.1 µM, first compound 0.316 µM): 119% | viability, T/C (second compound 0.1 µM, first compound 1 µM): 115% | viability, T/C (second compound 0.1 µM, first compound 3.16 µM): 81.9% | viability, T/C (second compound 0.1 µM, first compound 10 µM): 26.5% | viability, T/C (second compound 0.316 µM, first compound 0.0316 µM): 105% | viability, T/C (second compound 0.316 µM, first compound 0.1 µM): 111% | viability, T/C (second compound 0.316 µM, first compound 0.316 µM): 100% | viability, T/C (second compound 0.316 µM, first compound 1 µM): 99.9% | viability, T/C (second compound 0.316 µM, first compound 3.16 µM): 64.1% | viability, T/C (second compound 0.316 µM, first compound 10 µM): 31% | viability, T/C (second compound 1 µM, first compound 0.0316 µM): 122% | viability, T/C (second compound 1 µM, first compound 0.1 µM): 119% | viability, T/C (second compound 1 µM, first compound 0.316 µM): 114% | viability, T/C (second compound 1 µM, first compound 1 µM): 87.7% | viability, T/C (second compound 1 µM, first compound 3.16 µM): 77.3% | viability, T/C (second compound 1 µM, first compound 10 µM): 30.2% | viability, T/C (second compound 3.16 µM, first compound 0.0316 µM): 98% | viability, T/C (second compound 3.16 µM, first compound 0.1 µM): 85.7% | viability, T/C (second compound 3.16 µM, first compound 0.316 µM): 93.5% | viability, T/C (second compound 3.16 µM, first compound 1 µM): 81.1% | viability, T/C (second compound 3.16 µM, first compound 3.16 µM): 64.3% | viability, T/C (second compound 3.16 µM, first compound 10 µM): 26% | viability, T/C (second compound 10 µM, first compound 0.0316 µM): 53% | viability, T/C (second compound 10 µM, first compound 0.1 µM): 52.3% | viability, T/C (second compound 10 µM, first compound 0.316 µM): 67.7% | viability, T/C (second compound 10 µM, first compound 1 µM): 41.7% | viability, T/C (second compound 10 µM, first compound 3.16 µM): 39.8% | viability, T/C (second compound 10 µM, first compound 10 µM): 19.3%

Nc1ncn(C2CC(O)C(CO)S2)c(=O)n1 (stereo not given) + Cc1cncc(-c2nc(NCCc3c[nH]c4ccccc34)c3ncn(C(C)C)c3n2)c1
IC50 (second compound 0.1 µM): 222 nM | IC50 (second compound 0.316 µM): 219 nM | IC50 (second compound 1 µM): 294 nM | IC50 (second compound 3.16 µM): 293 nM | IC50 (second compound 10 µM): 43.8 nM | viability, T/C (second compound 0.1 µM, first compound 0.000949 µM): 101% | viability, T/C (second compound 0.1 µM, first compound 0.003 µM): 110% | viability, T/C [1]: 80.4% | viability, T/C [2]: 93.2% | viability, T/C [3]: 57.6% | viability, T/C [4]: 46.8% | viability, T/C (second compound 0.316 µM, first compound 0.000949 µM): 86.7% | viability, T/C (second compound 0.316 µM, first compound 0.003 µM): 97.1% | viability, T/C [5]: 92.2% | viability, T/C [6]: 84% | viability, T/C [7]: 59.2% | viability, T/C [8]: 46.5% | viability, T/C (second compound 1 µM, first compound 0.000949 µM): 87.7% | viability, T/C (second compound 1 µM, first compound 0.003 µM): 95.7% | viability, T/C [9]: 99.5% | viability, T/C [10]: 80.1% | viability, T/C [11]: 73% | viability, T/C [12]: 49.3% | viability, T/C (second compound 3.16 µM, first compound 0.000949 µM): 102% | viability, T/C (second compound 3.16 µM, first compound 0.003 µM): 98.6% | viability, T/C [13]: 93.2% | viability, T/C [14]: 94.5% | viability, T/C [15]: 58.7% | viability, T/C [16]: 49.5% | viability, T/C (second compound 10 µM, first compound 0.000949 µM): 57% | viability, T/C (second compound 10 µM, first compound 0.003 µM): 51.4% | viability, T/C [17]: 55.5% | viability, T/C [18]: 54.7% | viability, T/C [19]: 43.7% | viability, T/C [20]: 37.7%

O=C(C=Cn1cnc(-c2cc(C(F)(F)F)cc(C(F)(F)F)c2)n1)NNc1cnccn1 + Cc1cncc(-c2nc(NCCc3c[nH]c4ccccc34)c3ncn(C(C)C)c3n2)c1
IC50 (second compound 0.1 µM): 158 nM | IC50 (second compound 0.316 µM): 175 nM | IC50 (second compound 1 µM): 166 nM | IC50 (second compound 3.16 µM): 166 nM | IC50 (second compound 10 µM): < 9.49 nM | viability, T/C [1]: 111% | viability, T/C [2]: 101% | viability, T/C [3]: 61.7% | viability, T/C [4]: 32.7% | viability, T/C (second compound 0.1 µM, first compound 0.949 µM): 15.1% | viability, T/C (second compound 0.1 µM, first compound 3 µM): 5.4% | viability, T/C [5]: 103% | viability, T/C [6]: 99.8% | viability, T/C [7]: 63.5% | viability, T/C [8]: 36.6% | viability, T/C (second compound 0.316 µM, first compound 0.949 µM): 14.4% | viability, T/C (second compound 0.316 µM, first compound 3 µM): 5.66% | viability, T/C [9]: 110% | viability, T/C [10]: 109% | viability, T/C [11]: 65.3% | viability, T/C [12]: 31.7% | viability, T/C (second compound 1 µM, first compound 0.949 µM): 13.6% | viability, T/C (second compound 1 µM, first compound 3 µM): 5.72% | viability, T/C [13]: 94% | viability, T/C [14]: 109% | viability, T/C [15]: 61.1% | viability, T/C [16]: 34.5% | viability, T/C (second compound 3.16 µM, first compound 0.949 µM): 15.1% | viability, T/C (second compound 3.16 µM, first compound 3 µM): 5.67% | viability, T/C [17]: 38.6% | viability, T/C [18]: 34.2% | viability, T/C [19]: 30.6% | viability, T/C [20]: 21.1% | viability, T/C (second compound 10 µM, first compound 0.949 µM): 13.5% | viability, T/C (second compound 10 µM, first compound 3 µM): 7.49%
